Structures are written as SMILES.

This experiment concerns the target T1, Mycothiol S-conjugate amidase (Mycobacterium tuberculosis (strain ATCC 25618 / H37Rv), UniProt P9WJN1).
T1 sequence (P9WJN1 whole entry): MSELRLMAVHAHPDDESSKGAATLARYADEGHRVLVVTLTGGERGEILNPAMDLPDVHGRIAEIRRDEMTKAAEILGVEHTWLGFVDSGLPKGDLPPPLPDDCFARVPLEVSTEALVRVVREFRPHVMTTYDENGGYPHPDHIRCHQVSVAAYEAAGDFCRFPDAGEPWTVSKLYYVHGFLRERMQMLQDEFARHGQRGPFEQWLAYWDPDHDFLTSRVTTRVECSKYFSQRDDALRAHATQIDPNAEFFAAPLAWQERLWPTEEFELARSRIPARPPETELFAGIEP
In words: ChEBML_140808. The source says:
Inhibition of Mycothiol -S-conjugate amidase (MCA) from mycobacterium tuberculosis

For orientation: IC50 means the concentration that inhibits the measured activity by half. In the case of `O=NC(Cc1ccc(O)c(Br)c1)C(=O)NCCSSCCNC(=O)C(Cc1ccc(O)c(Br)c1)N=O` (configuration not stated) [3-(3-bromo-4-hydroxy-phenyl)-N-[2-(2-{3-(3-bromo-4-hydroxy-phenyl)-2-[hydroxyimino]-propionylamino}-ethyldisulfanyl)-ethyl]-2-[hydroxyimino]-propionamide], the IC50 was 2.8 µM.

As to `N=C(N)CCCCNC(=O)C(Cc1cc(Br)c(OCCCN)c(Br)c1)N=O` (configuration not stated) [3-[4-(3-Amino-propoxy)-3,5-dibromo-phenyl]-N-(4-carbamimidoyl-butyl)-2-[(E)-hydroxyimino]-propionamide], the IC50 was found to be 2.8 µM.

The values above are taken from BindingDB's records for doi:10.1016/s0960-894x(02)00385-2 (National Institute of Diabetes and Digestive and Kidney …, 2002).
